According to patent publication US20250346585A1 (Alexion Pharmaceuticals, Inc., priority 2022, published 2025):
Where two headings read alike, the source gives them in different places.

Target: Human complement C1s enzyme (Homo sapiens (Human), UniProt P09871)
Experiment: Human C1s enzyme assay
Assay type: biochemical
Conditions: read-out: IC50 (Stars)
Procedure, shortened: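 IC50 derived by nonlinear regression of rate versus concentration, with rate taken from A405 kinetics (30 s intervals, 30 min) after adding 100 μM each Z-L-Lys-SBzl and DTNB. C1s from human serum, 1.16 nM, exposed to compound for 5 min at RT beforehand; buffer 50 mM Tris, 1 M NaCl, pH 7.5.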

[1] = Human C1s enzyme assay of Example 3
[2] = Human complement C1s enzyme 1.16 nM, substrate Z-L-Lys-SBzl 100 μM, assay of Example 3

Sequence of Human complement C1s enzyme (P09871 438-688 limits assumed): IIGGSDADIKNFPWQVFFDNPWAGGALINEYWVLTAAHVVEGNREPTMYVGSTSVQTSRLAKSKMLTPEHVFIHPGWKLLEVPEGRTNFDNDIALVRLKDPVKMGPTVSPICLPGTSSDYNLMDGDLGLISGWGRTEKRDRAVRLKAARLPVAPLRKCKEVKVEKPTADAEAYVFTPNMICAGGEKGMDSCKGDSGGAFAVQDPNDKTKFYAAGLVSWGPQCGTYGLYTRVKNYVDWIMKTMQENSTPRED
Sequence of Human complement C1s enzyme (P09871 16-437 partner limits assumed): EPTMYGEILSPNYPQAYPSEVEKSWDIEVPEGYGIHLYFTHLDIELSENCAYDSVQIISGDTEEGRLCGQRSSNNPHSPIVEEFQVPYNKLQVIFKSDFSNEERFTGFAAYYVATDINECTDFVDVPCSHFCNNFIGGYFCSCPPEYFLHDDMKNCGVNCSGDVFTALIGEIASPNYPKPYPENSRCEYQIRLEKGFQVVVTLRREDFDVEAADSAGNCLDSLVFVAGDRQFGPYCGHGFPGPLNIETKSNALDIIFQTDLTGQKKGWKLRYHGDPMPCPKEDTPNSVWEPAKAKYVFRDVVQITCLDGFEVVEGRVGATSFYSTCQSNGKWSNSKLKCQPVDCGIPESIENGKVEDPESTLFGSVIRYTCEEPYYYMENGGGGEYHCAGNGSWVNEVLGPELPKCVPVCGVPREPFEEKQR

Compound	IC50 [1]	IC50 [2]
C[C@@H](NC(=O)[C@@H]1C[C@@H](OC(F)F)CN1C(=O)CNC(=O)c1ccc(Oc2ccc(C(F)F)cc2)cc1)c1cc(C(=N)N)cs1 [Compound 65, (2S,4R)—N—((R)-1-(4-carbamimidoylthiophen-2-yl)ethyl)-4-(difluoromethoxy)-1-((4-(4-(difluoromethyl)phenoxy)benzoyl)glycyl)pyrrolidine-2-carboxamide]	< 0.1 µM	
N=C(N)c1csc(CNC(=O)[C@@H]2CC3(CN2C(=O)CNC(=O)c2ncc(-c4ccccc4)cc2F)OCCO3)c1 [Compound 105, (S)—N-((4-carbamimidoylthiophen-2-yl)methyl)-7-((3-fluoro-5-phenylpicolinoyl)glycyl)-1,4-dioxa-7-azaspiro[4.4]nonane-8-carboxamide]	< 0.1 µM	
C[C@H]1C[C@@H](C(=O)N[C@H](C)c2cc(C(=N)N)cs2)N(C(=O)CNC(=O)c2ccc(Oc3ccc(F)cc3)cc2)C1 [Compound 45, (2S,4S)—N—((R)-1-(4-carbamimidoylthiophen-2-yl)ethyl)-1-((4-(4-fluorophenoxy)benzoyl)glycyl)-4-methylpyrrolidine-2-carboxamide]	< 0.1 µM	
N=C(N)c1csc(CNC(=O)[C@@H]2CC3(CN2C(=O)CNC(=O)c2ccc(-c4ccccc4)cn2)OCCO3)c1 [Compound 48, (S)—N-((4-carbamimidoylthiophen-2-yl)methyl)-7-((5-phenylpicolinoyl)glycyl)-1,4-dioxa-7-azaspiro[4.4]nonane-8-carboxamide]	< 0.1 µM	
C[C@@H](NC(=O)[C@@H]1C[C@@H](OC(F)F)CN1C(=O)CNC(=O)c1ccc2c(c1)-c1ccccc1C2(F)F)c1ccc(C(=N)N)s1 [Compound 30, (2S,4R)—N—((R)-1-(5-carbamimidoylthiophen-2-yl)ethyl)-1-((9,9-difluoro-9H-fluorene-3-carbonyl)glycyl)-4-(difluoromethoxy)pyrrolidine-2-carboxamide]	< 0.1 µM	
C[C@@H](NC(=O)[C@@H]1CC2(CN1C(=O)CNC(=O)c1cc3ccc1CCc1ccc(cc1)CC3)OCCO2)c1cc(C(=N)N)cs1 [Compound 66, (S)-7-((1,4(1,4)-dibenzenacyclohexaphane-1^2-carbonyl)glycyl)-N—((R)-1-(4-carbamimidoylthiophen-2-yl)ethyl)-1,4-dioxa-7-azaspiro[4.4]nonane-8-carboxamide]	< 0.1 µM	
Cc1ccc(Oc2ccc(C(=O)NCC(=O)N3[C@H]4C[C@@]4(C)C[C@H]3C(=O)N[C@H](C)c3cc(C(=N)N)cs3)cc2)cc1 [Compound 7, (1S,3S,5S)—N—((R)-1-(4-carbamimidoylthiophen-2-yl)ethyl)-5-methyl-2-((4-(p-tolyloxy)benzoyl)glycyl)-2-azabicyclo[3.1.0]hexane-3-carboxamide]	< 0.1 µM	
C[C@H](O)[C@H](O)[C@@H](O)[C@@H](O)CNCC(=O)NCCOC[C@@]12C[C@@H]1N(C(=O)CNC(=O)CCCOc1ccccc1)[C@H](C(=O)N[C@H](C)c1cc(C(=N)N)cs1)C2 [Compound 2, (1S,3S,5R)—N—((R)-1-(4-carbamimidoylthiophen-2-yl)ethyl)-2-((4-phenoxybutanoyl)glycyl)-5-((2-(2-(((2S,3S,4S,5S)-2,3,4,5-tetrahydroxyhexyl)amino)acetamido)ethoxy)methyl)-2-azabicyclo[3.1.0]hexane-3-carboxamide]	< 0.1 µM	
C[C@@H](NC(=O)[C@@H]1C[C@]2(C)C[C@@H]2N1C(=O)CNC(=O)c1ccc2c(c1)-c1ccccc1C2(F)F)c1ccc(C(=N)N)s1 [Compound 29, (1S,3S,5S)—N—((R)-1-(5-carbamimidoylthiophen-2-yl)ethyl)-2-((9,9-difluoro-9H-fluorene-3-carbonyl)glycyl)-5-methyl-2-azabicyclo[3.1.0]hexane-3-carboxamide]	< 0.1 µM	
C[C@@H](NC(=O)[C@@H]1CC2(CN1C(=O)CNC(=O)c1ccc3cc4ccccc4cc3c1)OCCO2)c1cc(C(=N)N)cs1 [Compound 78, (S)-7-((anthracene-2-carbonyl)glycyl)-N—((R)-1-(4-carbamimidoylthiophen-2-yl)ethyl)-1,4-dioxa-7-azaspiro[4.4]nonane-8-carboxamide]	< 0.1 µM	
C[C@@H](NC(=O)[C@@H]1C[C@]2(CO)C[C@@H]2N1C(=O)CNC(=O)c1ccc(Oc2ccc(F)cc2)cc1)c1cc(C(=N)N)cs1 [Compound 42, (1S,3S,5R)—N—((R)-1-(4-carbamimidoylthiophen-2-yl)ethyl)-2-((4-(4-fluorophenoxy)benzoyl)glycyl)-5-(hydroxymethyl)-2-azabicyclo[3.1.0]hexane-3-carboxamide]	< 0.1 µM	

Now from value to compound:

IC50 [1]	IC50 [2]	Compound
< 0.1 µM		C[C@@H](NC(=O)[C@@H]1CC2(CN1C(=O)CNC(=O)c1ccc3c(c1)-c1ccccc1C3O)OCCO2)c1cc(C(=N)N)cs1 (stereo partly drawn) [Compound 162, (8S)—N—((R)-1-(4-carbamimidoylthiophen-2-yl)ethyl)-7-((9-hydroxy-9H-fluorene-3-carbonyl)glycyl)-1,4-dioxa-7-azaspiro[4.4]nonane-8-carboxamide]
	< 0.1 µM	CS(=O)(=O)c1ccc(-c2ccc(C(=O)NCC(=O)N3CC4(C[C@H]3C(=O)NCc3cc(C(=N)N)cs3)OCCO4)cc2)c(F)c1 [Compound 215, (S)—N-((4-carbamimidoylthiophen-2-yl)methyl)-7-((2′-fluoro-4′-(methylsulfonyl)-[1,1′-biphenyl]-4-carbonyl)glycyl)-1,4-dioxa-7-azaspiro[4.4]nonane-8-carboxamide]
> 1 µM		Nc1ccc(-c2csc(CNC(=O)[C@@H]3CC4(CN3C(=O)CNC(=O)c3ccc(Oc5ccc(F)cc5)cc3)OCCO4)c2)cn1 [Compound 123, (S)—N-((4-(6-aminopyridin-3-yl)thiophen-2-yl)methyl)-7-((4-(4-fluorophenoxy)benzoyl)glycyl)-1,4-dioxa-7-azaspiro[4.4]nonane-8-carboxamide]
	> 1 µM	NCCC(=O)Nc1csc(CNC(=O)[C@@H]2CC3(CN2C(=O)CNC(=O)c2ccc(Oc4ccc(F)cc4)cc2)OCCO3)c1 [Compound 311, (S)-N-((4-(3-aminopropanamido)thiophen-2-yl)methyl)-7-((4-(4-fluorophenoxy)benzoyl)glycyl)-1,4-dioxa-7-azaspiro[4.4]nonane-8-carboxamide]
	< 0.1 µM	C[C@@H](NC(=O)[C@@H]1C[C@@H](OC(F)F)CN1C(=O)CNC(=O)c1ccc2sc3ccccc3c2c1)c1cc(C(=N)N)cs1 [Compound 353, (2S,4R)—N—((R)-1-(4-carbamimidoylthiophen-2-yl)ethyl)-1-((dibenzo[b,d]thiophene-2-carbonyl)glycyl)-4-(difluoromethoxy)pyrrolidine-2-carboxamide]
	< 0.1 µM	Cc1ccc(-c2cnc(C(=O)NCC(=O)N3CC4(C[C@H]3C(=O)N[C@H](C)c3cc(C(=N)N)cs3)OCCO4)c(F)c2)cc1 [Compound 388, (S)—N—((R)-1-(4-carbamimidoylthiophen-2-yl)ethyl)-7-((3-fluoro-5-(p-tolyl)picolinoyl)glycyl)-1,4-dioxa-7-azaspiro[4.4]nonane-8-carboxamide]
< 0.1 µM		C[C@@H](NC(=O)[C@@H]1C[C@]2(C)C[C@@H]2N1C(=O)CNC(=O)c1ccc2c(c1)C(F)(F)c1ccccc1-2)c1cc(C(=N)N)cs1 [Compound 121, (1S,3S,5S)—N-[(1R)-1-(4-carbamimidoylthiophen-2-yl)ethyl]-2-{2-[(9,9-difluorofluoren-2-yl)formamido]acetyl}-5-methyl-2-azabicyclo[3.1.0]hexane-3-carboxamide]
